These results are taken from US20190119200A1, “TERTIARY AMIDES AND METHOD OF USE” (AbbVie Inc., priority 2016, published 2019).

The target of the experiment is T1, LPAR1 (Homo sapiens, UniProt Q92633).
T1 construct: host or cells: U2OS
Briefly: LPAR1 FLIPR Assay. The experiment is classed as cell-based. Particulars: U2OS cells stably expressing LPAR1, LPA (EC80), Calcium 6 FLIPR dye; for Emax: read-out: Maximum Inhibition. The protocol: U2OS cells stably expressing LPAR1 (Life Technologies #K1519A) were plated at 12000 cells/well in growth medium (McCoy's 5A medium(Life Technologies 16600-082)) with 10% dFBS (Life Technologies 26400-036), 0.1 mM non-essential amino acids, 25 mM HEPES, 1 mM sodium pyruvate, 1% penicillin/streptomycin, 50 μg/mL hygromycin, and 100 μg/mL Geneticin® in black-walled, clear-bottom 384-well plates (Corning #3683) and incubated in humidified 5% CO2 at 37° C. overnight. On the day of the assay, medium was removed and 30 μL of 5% Calcium 6 FLIPR dye in assay buffer-HBSS (Life Technologies #14025) containing 20 mM HEPES (Life Technologies #15630-080) was added to the cells. Cells were incubated at 37° C. in the dark for 2 hours. Compounds were 3-fold serial diluted from 10 mM for 11-points using dimethyl sulfoxide. 1 μL of compound in DMSO was diluted in 82.3 μL assay buffer immediately before the assay. Using a FLIPR® TETRA® system, 15 μL of the (4×) compound solutions were first added to the cells, then 15 μL of LPA (EC80) diluted in of assay buffer supplemented with 0.1% BSA was added 3 minutes later to activate the receptor. Changes in fluorescence were measured at wavelengths of 515-575 nm over the course of the experimental run. IC50 values were calculated from curve fits of the ratio data using a four-parameter logistic Hill equation (Assay Explorer 3.3 Client).

T1 sequence (Q92633 whole entry): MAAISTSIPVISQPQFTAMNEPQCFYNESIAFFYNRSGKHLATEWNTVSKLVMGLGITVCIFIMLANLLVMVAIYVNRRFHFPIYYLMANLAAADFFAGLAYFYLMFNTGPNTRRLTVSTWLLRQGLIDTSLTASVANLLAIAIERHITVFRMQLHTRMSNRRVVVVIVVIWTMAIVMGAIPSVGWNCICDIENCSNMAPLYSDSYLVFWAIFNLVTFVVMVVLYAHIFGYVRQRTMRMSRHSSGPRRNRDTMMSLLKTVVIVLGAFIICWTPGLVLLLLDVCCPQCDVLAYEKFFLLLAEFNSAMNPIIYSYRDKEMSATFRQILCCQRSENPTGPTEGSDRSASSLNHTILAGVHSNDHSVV

For the compound “5-[(3-methoxy-4-methylbenzoyl)(3-phenylpropyl)amino]pentanoic Acid [Example 28]”, the IC50 came to 0.398 µM and the “Maximum Inhibition” value was found to be 72%.
As to `O=C(O)CCCCN(CCCc1ccccc1)C(=O)c1cc(Cl)cc(Cl)c1` [Example 12, 5-[(3,5-dichlorobenzoyl)(3-phenylpropyl)amino]pentanoic Acid], the half-maximal inhibitory concentration (IC50) came to 3.24 µM and the Emax came to 55%.
Consider `COc1c(F)cc(C(=O)N(CCCCC(=O)O)CCCc2ccccc2)cc1F` [Example 13, 5-[(3,5-difluoro-4-methoxybenzoyl)(3-phenylpropyl)amino]pentanoic Acid], for which the IC50 was 6.17 µM and the Emax worked out at 48%.
For `CCOc1cc(C(=O)N(CCCCC(=O)O)CCCc2ccccc2)ccn1` [Example 14, 5-[(2-ethoxypyridine-4-carbonyl)(3-phenylpropyl)amino]pentanoic Acid], the half-inhibitory concentration (IC50) worked out at 0.942 µM and the Emax turned out to be 41%.
As for `COc1cc(OC)cc(C(=O)N(CCCc2ccccc2)CCOCC(=O)O)c1` [Example 15, {2-[(3,5-dimethoxybenzoyl)(3-phenylpropyl)amino]ethoxy}acetic Acid], the 50% inhibitory concentration (IC50) turned out to be 0.29 µM and the Emax was 59%.
The corresponding values for `Cc1c(Cl)cc(C(=O)N(CCCCC(=O)O)CCCc2ccccc2)cc1Cl` [Example 16, 5-[(3,5-dichloro-4-methylbenzoyl)(3-phenylpropyl)amino]pentanoic Acid] are 0.985 µM and 70%.
The corresponding values for `CCOc1cc(C(=O)N(CCCCC(=O)O)CCCc2ccccc2)cc(OCC)c1OCC` [Example 21, 5-[(3-phenylpropyl)(3,4,5-triethoxybenzoyl)amino]pentanoic Acid] are 0.224 µM and 82%.
Take `O=C(O)CCCCN(CCCc1ccccc1)C(=O)c1ccc2c(c1)OCCCO2` [Example 23, 5-[(3,4-dihydro-2H-1,5-benzodioxepine-7-carbonyl)(3-phenylpropyl)amino]pentanoic Acid]: the half-maximal inhibitory concentration (IC50) amounted to 12.6 µM and the Emax amounted to 53%.
As for `COc1cc(C(=O)N(CCCCC(=O)O)CCCc2ccccc2)cc2ccoc12` [Example 24, 5-[(7-methoxy-1-benzofuran-5-carbonyl)(3-phenylpropyl)amino]pentanoic Acid], the half-maximal inhibitory concentration (IC50) was determined as 0.481 µM and the Emax was determined as 58%.
On the same counts, the results for `O=C(O)CCCCN(CCCc1ccccc1)C(=O)C1(c2ccc(OC(F)(F)F)cc2)CC1` [Example 25, 5-[(3-phenylpropyl){1-[4-(trifluoromethoxy)phenyl]cyclopropane-1-carbonyl}amino]pentanoic Acid] are 29.3 µM and 48%.
On the same counts, the results for `O=C(O)CCCCN(CCCc1ccccc1)C(=O)c1cccc(OC(F)(F)F)c1` [Example 26, 5-{(3-phenylpropyl)[3-(trifluoromethoxy)benzoyl]amino}pentanoic Acid] are over 30 µM and 50%.
The corresponding values for `O=C(O)CCCCN(CCCc1ccccc1)C(=O)C1(c2ccc3c(c2)OCO3)CC1` [Example 27, 5-{[1-(2H-1,3-benzodioxol-5-yl)cyclopropane-1-carbonyl](3-phenylpropyl)amino}pentanoic Acid] are 1.06 µM and 65%.
Turning to `COc1cc(OC(F)(F)F)cc(C(=O)N(CCCCC(=O)O)CCCc2ccccc2)c1` [Example 29, 5-{[3-methoxy-5-(trifluoromethoxy)benzoyl](3-phenylpropyl)amino}pentanoic Acid], the IC50 was 0.309 µM and the Emax turned out to be 79%.
The corresponding values for `COc1cc(C(=O)N(CCCCC(=O)O)CCCc2ccc(Cl)cc2)cc(OC)c1C` [Example 36, 5-{[3-(4-chlorophenyl)propyl](3,5-dimethoxy-4-methylbenzoyl)amino}pentanoic Acid] are 0.6 µM and 83%.
On the same counts, the results for `COc1cc(C(=O)N(CCCCC(=O)O)CCCc2cccc(C(F)(F)F)c2)cc(OC)c1C` [Example 40, 5-[(3,5-dimethoxy-4-methylbenzoyl){3-[3-(trifluoromethyl)phenyl]propyl}amino]pentanoic Acid] are 29.3 µM and 45%.
On the same counts, the results for `COc1cc(C(=O)N(CCCCC(=O)O)CCCc2ccc(C)cc2)cc(OC)c1C` [Example 42, 5-{(3,5-dimethoxy-4-methylbenzoyl)[3-(4-methylphenyl)propyl]amino}pentanoic Acid] are 0.236 µM and 90%.
On to `COc1ccc(CCCN(CCCCC(=O)O)C(=O)c2cc(OC)c(C)c(OC)c2)cc1` [Example 43, 5-{(3,5-dimethoxy-4-methylbenzoyl)[3-(4-methoxyphenyl)propyl]amino}pentanoic Acid], for which the 50% inhibitory concentration (IC50) turned out to be 23.3 µM and the Emax came out at 55%.
As for `COc1cc(C(=O)N(CCCc2ccccc2)CC(=O)N[C@@H](Cc2ccccc2)C(=O)O)cc(OC)c1C` [Example 46, N-(3,5-dimethoxy-4-methylbenzoyl)-N-(3-phenylpropyl)glycylphenylalanine], the IC50 came out at 0.128 µM and the Emax turned out to be 66%.
The corresponding values for `COc1cc(C(=O)N(CCCCC(=O)O)CCCc2ccc(Cl)cc2Cl)cc(OC)c1C` [Example 49, 5-{[3-(2,4-dichlorophenyl)propyl](3,5-dimethoxy-4-methylbenzoyl)amino}pentanoic Acid] are 24.3 µM and 58%.
On the same counts, the results for `COc1cc(C(=O)N(CCCc2ccccc2)CC(=O)NCC(=O)O)cc(OC)c1C` [Example 51, N-(3,5-dimethoxy-4-methylbenzoyl)-N-(3-phenylpropyl)glycylglycine] are 0.238 µM and 62%.
For `COc1cc(C(=O)N(CCCc2ccccc2)CC[S+]([O-])CC(=O)O)cc(OC)c1C` (stereo not shown) [Example 53, {2-[(3,5-dimethoxy-4-methylbenzoyl)(3-phenylpropyl)amino]ethanesulfinyl}acetic Acid], the concentration for half-maximal inhibition (IC50) came out at 0.239 µM and the Emax is 63%.
On the same counts, the results for `O=C(O)CCCCN(CCCc1ccccc1)C(=O)C1(c2ccncc2)CC1` [Example 64, 5-{(3-phenylpropyl)[1-(pyridin-4-yl)cyclopropane-1-carbonyl]amino}pentanoic Acid] are 1.23 µM and 54%.
On the same counts, the results for `COc1ccc2c(C(=O)N(CCCCC(=O)O)CCCc3ccccc3)c[nH]c2c1` [Example 65, 5-[(6-methoxy-1H-indole-3-carbonyl)(3-phenylpropyl)amino]pentanoic Acid] are 5.02 µM and 49%.
With `COc1ccc([C@@H](OC)C(=O)N(CCCCC(=O)O)CCCc2ccccc2)cc1` [Example 66, 5-{[(2R)-2-methoxy-2-(4-methoxyphenyl)acetyl](3-phenylpropyl)amino}pentanoic Acid], the IC50 is 0.312 µM and the Emax was found to be 71%.
On the same counts, the results for `COc1cc(C(=O)N(CCCCP(=O)(O)O)CCCc2ccccc2)cc(OC)c1C` [Example 71, {4-[(3,5-dimethoxy-4-methylbenzoyl)(3-phenylpropyl)amino]butyl}phosphonic Acid] are 0.012 µM and 91%.
On the same counts, the results for `COc1cc(C(=O)N(CCCc2ccccc2)CCCC(C)P(=O)(O)O)cc(OC)c1C` (stereo not shown) [Example 72, {5-[(3,5-dimethoxy-4-methylbenzoyl)(3-phenylpropyl)amino]pentan-2-yl}phosphonic Acid] are 0.026 µM and 99%.

The term IC50 denotes the concentration that gives 50% inhibition.
